Assay [1] deals with alcohol dehydrogenase from Lyngbya sp., wild type, SEQ ID NO: 1. As to the kind of experiment: Km determination of native Adh in cell extract (forward and back reaction), Lyngbya sp. The settings on record: pH 7.5, 30° C. The assay is classed as biochemical.
For assay [2], the system named is alcohol dehydrogenase from Cyanothece sp., wild type, SEQ ID NO: 3. In words: Km determination of native Adh in cell extract (forward and back reaction), Cyanothece sp. The class given is biochemical. To be noted: pH 7.5, 30° C.
Assay [3] relates to alcohol dehydrogenase from Synechococcus sp., wild type, SEQ ID NO: 4. As to the kind of experiment: Km determination of native Adh in cell extract (forward and back reaction), Synechococcus sp. SEQ ID NO: 4. The assay is classed as biochemical. To be noted: pH 7.5, 30° C. The method, then:
(§1) Km values of ADH enzymes were determined herein by varying concentrations of one substrate only while keeping all other substrates at saturated levels. The kinetic parameters of the ADH enzymes were determined herein on cellular extracts, and not on pure enzyme. Km was determined herein using a nonlinear regression algorithm for the single-substrate version of the Michaelis-Menten model by using GraphPad Prism Software (version 5). The detailed description of the algorithm is available on the world wide web at “graphpad.com/guides/prism/6/curve-fitting/index.htm?reg_kcat.htm”.
(§2) As used herein, the Km value was measured according to the method described in Example 4. […] For the forward reaction measurement, 0.15 mM NADPH was added, and acetaldehyde was added in differing amounts ranging from […] to 50 mM. The NADPH oxidation was measured at a wavelength of 340 nm.
(§3) In the above aspects, the Km-values represent the Km-values of the native, i.e. non-recombinant, form of the alcohol dehydrogenase enzyme. A Km-value as used herein can be determined from the endogenously expressed alcohol dehydrogenase enzyme of a wild-type cyanobacterial cell. […]
(§4) The reaction was started by addition of varying amounts of acetaldehyde in final concentrations between 1 μM and 50 mM. The NADPH oxidation was spectrophotometrically monitored at a wavelength of 340 nm on a Shimadzu UV2450 spectrophotometer. […]

For assay [4], the system named is alcohol dehydrogenase from Synechococcus sp., wild type, SEQ ID NO: 5. As to the kind of experiment: Km determination of native Adh in cell extract (forward and back reaction), Synechococcus sp. SEQ ID NO: 5. The class given is biochemical. The settings on record: pH 7.5, 30° C. The protocol: as §1, §2, §3, §4
For assay [5], the system named is alcohol dehydrogenase from Synechococcus sp., wild type, SEQ ID NO: 6. As to the kind of experiment: Km determination of native Adh in cell extract (forward and back reaction), Synechococcus sp. SEQ ID NO: 6. The assay is classed as biochemical. To be noted: pH 7.5, 30° C. The protocol: as §1, §2, §3, §4
The subject of assay [6] is alcohol dehydrogenase from Arthronema africanum, wild type, SEQ ID NO: 8. In words: Km determination of native Adh in cell extract (forward and back reaction), Arthronema africanum. The assay is classed as biochemical. The settings on record: 0.15 mM NADPH, pH 7.5, 30° C., read-out: Km(MeCHO).
In assay [7] the test system is alcohol dehydrogenase from Chroococcidiopsis sp., wild type, SEQ ID NO: 9. In words: Km determination of native Adh in cell extract (forward and back reaction), Chroococcidiopsis sp. SEQ ID NO: 9. The class given is biochemical. To be noted: 0.15 mM NADPH, pH 7.5, 30° C., read-out: Km(MeCHO). The protocol:
as §1, §2, §3, §4

The test system of the next assay is Adh from LPP. In words: Km determination in the screening, Adh from LPP. The assay is classed as biochemical. The settings on record: identified in the screening. The protocol: as §1, §2, §3, §4
The subject of assay [8] is alcohol dehydrogenase AdhA from Moorella sp. HUC22-1. To be noted: Inokuma et al., Arch Microbiol 188 (2007) 37-45, cited from earlier work.
Setting [9] is: 0.15 mM NADPH, read-out: Km(MeCHO).
The mark [10] stands for this setting: back reaction, 0.15 mM NADP+, read-out: Km(EtOH).

Each structure is given as a SMILES string. Where two headings read alike, the source gives them in different places.

Consider three compounds from patent US9493795B2 (Algenol Biofuels Inc., priority 2013, dated 2016).

`CC=O` [acetaldehyde]: the Km in assay [1] (0.15 mM NADPH, cell extract, Example 13, read-out: Km value for acetaldehyde) turned out to be 6 µM; in assay [1] (0.15 mM NADPH, cell extract, read-out: Km(MeCHO)) it was 5.8 µM; in [2] (setting [9]), 75.6 µM; in assay [3] (setting [9]), 731 µM; in assay [4] (setting [9]), 783 µM; in assay [5] (setting [9]), 1130 µM. The Km in assay [6] is 3340 µM; in assay [7], 3730 µM; with Adh from LPP (read-out: Km for acetaldehyde), 120 µM; in [8] (read-out: Km for acetaldehyde) it was 10000 µM.
Turning to `CCO` [ethanol], the Km in assay [1] (back reaction, 0.15 mM NADP+, cell extract, read-out: Km(EtOH)) came out at 830 µM; in assay [2] (setting [10]), 9330 µM; in assay [3] (setting [10]) it was 32400 µM; in [4] (setting [10]), 67000 µM; in [5] (setting [10]) it was 29300 µM; with Adh from LPP (read-out: Km for ethanol), 3600 µM. Also, the Km in assay [8] (read-out: Km for ethanol) is 40000 µM.
Regarding `CCC=O` [propanal], in assay [1] (as Example 4: 0.15 mM NADPH, FIG. 15A, read-out: Km for propanal), the Km worked out at 5.3 µM.
